Data published in ChEMBL document CHEMBL5120901, “Batatasin III, a Constituent of Dendrobium scabrilingue, Improves Murine Pain-like Behaviors with a Favorable CNS Safety Profile” (J Nat Prod, 2022).
Activity calls are given as the source filed them. The rule behind the calls is not given here.

Legend:
[1] = Toxicity in naive ICR mouse assessed as effect on body weight at 50 mg/kg, ip measured after 24 hrs; type: organism-based; settings: in vivo
[2] = CNS toxicity in naive ICR mouse assessed as spontaneous locomotor activity by measuring distance travelled in arena at 50 mg/kg, ip and measured for 30 mins by LABORAS automated behavioral analysis; type: organism-based; settings: in vivo, 0.5 h
[3] = CNS toxicity in naive ICR mouse assessed as spontaneous locomotor activity by measuring immobility behaviour at 50 mg/kg, ip and measured for 2 hrs by LABORAS automated behavioral analysis; type: organism-based; settings: in vivo
[4] = CNS toxicity in naive ICR mouse assessed as spontaneous locomotor activity by measuring rearing behaviour at 50 mg/kg, ip and measured for 2 hrs by LABORAS automated behavioral analysis; type: organism-based; settings: in vivo
RAW264.7 [5] = test: Cytotoxicity against mouse RAW264.7 cells assessed as reduction in cell viability at 100 uM incubated for 24 hrs by MTT assay; type: toxicity, cell-based; settings: raw264.7, 24 h
[6] = CNS toxicity in naive ICR mouse assessed as spontaneous locomotor activity by measuring climbing behaviour at 50 mg/kg, ip and measured for 30 mins by LABORAS automated behavioral analysis; type: organism-based; settings: in vivo, 0.5 h
Mus musculus [7] = test: (§1) Anti-inflammatory activity against LPS-induced inflammatory pain-like behaviour ICR mouse model assessed as improvement in locomotor activity by measuring decrease in immobility behaviour at 50 mg/kg, ip treated with LPS for 2 hrs followed by drug administration for 1 hr and measured for 5 mins by LABORAS analysis; type: functional, organism-based; settings: time 65.0 min
Mus musculus [8] = test: Analgesic activity against formalin-induced inflammatory pain-like behaviour ICR mouse model assessed as inhibition of hind paw licking behaviour at 12.5 to 50 mg/kg, ip administered 60 mins prior to formalin challenge and measured after 10 to 40 mins by formalin test; type: functional, organism-based; settings: dose 12.5-50 mg/kg, time 70-100 min, DDE = dose-dependent effect
[9] = CNS toxicity in naive ICR mouse assessed as motor coordination at 50 mg/kg, ip measured after 240 mins by rotarod test; type: organism-based; settings: in vivo, 4 h
[10] = CNS toxicity in naive ICR mouse assessed as spontaneous locomotor activity by measuring immobility behaviour at 50 mg/kg, ip and measured for 30 mins by LABORAS automated behavioral analysis; type: organism-based; settings: in vivo, 0.5 h
[11] = CNS toxicity in naive ICR mouse assessed as spontaneous locomotor activity by measuring animal's movement speed in arena at 50 mg/kg, ip and measured for 30 mins by LABORAS automated behavioral analysis; type: organism-based; settings: in vivo, 0.5 h
Mus musculus [12] = test: Analgesic activity against formalin-induced inflammatory pain-like behaviour ICR mouse model assessed as inhibition of hind paw licking behaviour at 50 mg/kg, ip administered 60 mins prior to formalin challenge and measured after 10 to 40 mins by formalin test; type: functional; settings: time 70-100 min
[13] = CNS toxicity in naive ICR mouse assessed as spontaneous locomotor activity by measuring climbing behaviour at 50 mg/kg, ip and measured for 2 hrs by LABORAS automated behavioral analysis; type: organism-based; settings: in vivo
Mus musculus [14] = test: as §1, with “increase” for “decrease”, “animal's movement speed in LABORAS arena” for “immobility behaviour”; type: functional, organism-based; settings: time 65.0 min
RAW264.7 [15] = test: Anti-inflammartory activity in mouse RAW264.7 cells assessed as inhibition of LPS-induced NO production pretreated with compound for 1 hr followed by incubation with LPS for 12 hrs by Griess reagent based analysis; type: functional, cell-based; settings: dose 12.5-50 µM, time 13.0 hrs, DDE = dose-dependent effect
Mus musculus [16] = test: as §1, with “increase” for “decrease”, “distance travelled in LABORAS arena” for “immobility behaviour”; type: functional, organism-based; settings: time 65.0 min
[17] = CNS toxicity in naive ICR mouse assessed as spontaneous locomotor activity by measuring rearing behaviour at 50 mg/kg, ip and measured for 30 mins by LABORAS automated behavioral analysis; type: organism-based; settings: in vivo, 0.5 h
RAW264.7 [18] = test: Anti-inflammartory activity against LPS-activated mouse RAW264.7 cells assessed as reduction in TNF-alpha levels pretreated with compound for 1 hr followed by incubation with LPS for 12 hrs by ELISA; type: functional, cell-based; settings: dose 12.5-50 µM, time 13.0 hrs, DDE = dose-dependent effect
[19] = CNS toxicity in naive ICR mouse assessed as spontaneous locomotor activity at 50 mg/kg, ip and measured for 2 hrs by LABORAS automated behavioral analysis; type: organism-based; settings: in vivo
BV-2 [20] = test: Anti-inflammartory activity against LPS-activated […] cells assessed as reduction in IL-6 levels pretreated with compound for 1 hr followed by co-incubation with LPS for 24 hrs by ELISA; type: functional, cell-based; settings: Mus musculus, dose 12.5-50 µM, time 25.0 hrs, DDE = dose-dependent effect
[21] = CNS toxicity in naive ICR mouse assessed as spontaneous locomotor activity by measuring distance travelled in arena at 50 mg/kg, ip and measured for 2 hrs by LABORAS automated behavioral analysis; type: organism-based; settings: in vivo
[22] = CNS toxicity in naive ICR mouse assessed as spontaneous locomotor activity by measuring anaimal's movement speed in arena at 50 mg/kg, ip and measured for 2 hrs by LABORAS automated behavioral analysis; type: organism-based; settings: in vivo
BV-2 [23] = test: Anti-inflammartory activity against LPS-activated […] cells assessed as reduction in TNF-alpha levels pretreated with compound for 1 hr followed by co-incubation with LPS for 24 hrs by ELISA; type: functional, cell-based; settings: Mus musculus, dose 12.5-50 µM, time 25.0 hrs, DDE = dose-dependent effect
RAW264.7 [24] = test: Anti-inflammartory activity against LPS-activated mouse RAW264.7 cells assessed as reduction in IL-6 levels pretreated with compound for 1 hr followed by incubation with LPS for 12 hrs by ELISA; type: functional, cell-based; settings: dose 12.5-50 µM, time 13.0 hrs, DDE = dose-dependent effect
Mus musculus [25] = test: Anti-inflammatory activity against LPS-induced inflammatory pain-like behaviour ICR mouse model assessed as reduction in IL-6 levels in plasma at 50 mg/kg, ip treated with LPS for 2 hrs followed by drug administration for 1 hr by ELISA; type: functional, organism-based
BV-2 [26] = test: Anti-inflammatory activity in […] cells assessed as inhibition of LPS-induced NO production pretreated with compound for 1 hr followed by coincubation with LPS for 24 hrs by Griess reagent based analysis; type: functional, cell-based; settings: Mus musculus, dose 12.5-50 µM, time 25.0 hrs, DDE = dose-dependent effect
[27] = Toxicity in naive ICR mouse assessed as effect on food intake at 50 mg/kg, ip measured after 24 hrs; type: organism-based; settings: in vivo
[28] = Toxicity in naive ICR mouse assessed as effect on water intake at 50 mg/kg, ip measured after 24 hrs; type: organism-based; settings: in vivo
[29] = CNS toxicity in naive ICR mouse assessed as spontaneous locomotor activity at 50 mg/kg, ip and measured for 30 mins by LABORAS automated behavioral analysis; type: organism-based; settings: in vivo, 0.5 h
Mus musculus [30] = test: as §1, with “increased mobile behaviours” for “decrease in immobility behaviour”; type: functional, organism-based; settings: time 65.0 min
BV-2 [31] = test: Cytotoxicity against […] cells assessed as reduction in cell viability at 100 uM incubated for 24 hrs by MTT assay; type: toxicity, cell-based; settings: mouse, bv-2, 24 h
Mus musculus [32] = test: Anti-inflammatory activity against LPS-induced inflammatory pain-like behaviour ICR mouse model assessed as reduction in TNF-alpha levels in plasma at 50 mg/kg, ip treated with LPS for 2 hrs followed by drug administration for 1 hr by ELISA; type: functional, organism-based
RAW264.7 [33] = test: Anti-inflammartory activity against LPS-activated mouse RAW264.7 cells assessed as reduction in IL-6 levels at 50 uM pretreated with compound for 1 hr followed by incubation with LPS for 12 hrs by ELISA; type: functional, cell-based; settings: time 13.0 hrs
RAW264.7 [34] = test: Anti-inflammartory activity in mouse RAW264.7 cells assessed as inhibition of LPS-induced NO production at 50 uM pretreated with compound for 1 hr followed by incubation with LPS for 12 hrs by Griess reagent based analysis; type: functional, cell-based; settings: time 13.0 hrs
RAW264.7 [35] = test: Anti-inflammartory activity against LPS-activated mouse RAW264.7 cells assessed as reduction in TNF-alpha levels at 50 uM pretreated with compound for 1 hr followed by incubation with LPS for 12 hrs by ELISA; type: functional, cell-based; settings: time 13.0 hrs

COc1cc(O)cc(CCc2cccc(O)c2)c1 [BATATASIN III]
Activity [1]: Non-Toxic
Activity [2]: Non-Toxic
Activity [3]: Non-Toxic
Activity [4]: Non-Toxic
Activity (RAW264.7 [5]): Toxic
Activity [6]: Non-Toxic
Activity (Mus musculus [7]): Active
Activity (Mus musculus [8]): Dde
Activity [9]: Non-Toxic
Activity [10]: Non-Toxic
Activity [11]: Non-Toxic
inhibition in vivo at 50 mg/kg (Mus musculus [12]): 69.9%
Activity [13]: Non-Toxic
Activity (Mus musculus [14]): Active
Activity (RAW264.7 [15]): Dde
Activity (Mus musculus [16]): Active
Activity [17]: Non-Toxic
Activity (RAW264.7 [18]): Dde
Activity [19]: Non-Toxic
Activity (BV-2 [20]): Dde
Activity [21]: Non-Toxic
Activity [22]: Non-Toxic
Activity (BV-2 [23]): Dde
Activity (RAW264.7 [24]): Dde
Activity (Mus musculus [25]): Active
Activity (BV-2 [26]): Dde
Activity [27]: Non-Toxic
Activity [28]: Non-Toxic
Activity [29]: Non-Toxic
Activity (Mus musculus [30]): Active
Activity (BV-2 [31]): Toxic
Activity (Mus musculus [32]): Active

C[C@@H]1C[C@H]2[C@@H]3CCC4=CC(=O)C=C[C@]4(C)[C@@]3(F)[C@@H](O)C[C@]2(C)[C@@]1(O)C(=O)CO
Activity (RAW264.7 [33]): Active
Activity (RAW264.7 [34]): Active
Activity (RAW264.7 [35]): Active
